Measured values published in paper PMC7534336, “New classes of potent heparanase inhibitors from ligand-based virtual screening” (Journal of Enzyme Inhibition and Medicinal Chemistry, 2020).
Several values for one entry are separate records, joined by “and”; a condition that tells them apart may be missing. Equal entries are not always repeated. Where two headings read alike, the source gives them in different places.

Tests used:
[1] = test system: U2OS (osteosarcoma) cells; experiment: proliferation assay (sulforhodamine B), U2OS; assay type: cell-based, human; settings: 72 h, range 10–0.2 µM, SRB, read-out: IC50, inhibition of cell proliferation
Method: (§1) HT1080 (fibrosarcoma), U87MG (glioblastoma), and U2OS (osteosarcoma) human cell lines were purchased from the American Type Culture Collection (ATCC; Manassas, VA) and maintained according to the manufacturer’s recommendations. Briefly, HT1080 and U87MG were grown in modified Eagle medium (Thermo Fisher Scientific), while U2OS cells were grown in McCoy’s 5a medium (Thermo Fisher Scientific), all supplemented with 10% FCS (Thermo Fisher Scientific), 100 U/mL penicillin, and 100 μg/mL streptomycin (Thermo Fisher Scientific) and 2 mM L-glutamine (Thermo Fisher Scientific). Cell lines were maintained at 37 °C with a humidified 5% CO2 atmosphere.
(§2) HT1080, U87MG, and U2OS exponentially growing cells were seeded into 96-well plates and then, 24 h later, treated for 72 h with several dilutions of test compounds in the range 10 − 0.2 μM. Inhibition of cell proliferation was measured by means of a classical sulforhodamine B (SRB) assay[40] performed in triplicate.

[2] = test system: U87MG (glioblastoma) cells; experiment: proliferation assay (sulforhodamine B), U87MG; assay type: cell-based, human; settings: 72 h, range 10–0.2 µM, SRB, read-out: IC50, inhibition of cell proliferation
Method: as §1, §2

[3] = test system: U87MG cells; experiment: Matrigel cell invasion assay, U87MG; assay type: cell-based, human; settings: 24 h of treatment; for inhibition at 10 µM: concentration tested 10 µM
Method: (§3) Cells were pre-treated with the indicated drug concentrations in complete medium for 24 h. Then, cells were harvested, resuspended in serum-free medium, and transferred (2.5 × 10^4 cells per filter) to the upper chamber of 24-well Transwell plates (Costar, Corning Inc., Corning, NY) previously coated with Growth Factor Reduced Matrigel (BD Biosciences, San Jose, CA). The same drug concentration used for cell pre-treatment was added to both the upper and lower chambers. After 24 h of incubation, cells that invaded the Matrigel were stained with SRB and then counted through a microscope at 40× −100× magnification depending on cell density. Data were expressed as the % inhibition of cell invasion, with respect to cell invasion in the absence of drugs.

[4] = test system: U2OS cells; experiment: Matrigel cell invasion assay, U2OS; assay type: cell-based, human; settings: 24 h of treatment; for inhibition at 10 µM: concentration tested 10 µM
Method: as §3

[5] = test system: HT1080 (fibrosarcoma) cells; experiment: proliferation assay (sulforhodamine B), HT1080; assay type: cell-based, human; settings: HT1080, 72 h, range 10–0.2 µM, SRB, read-out: IC50, inhibition of cell proliferation
Method: as §1, §2

[6] = test system: HT1080 cells; experiment: Matrigel cell invasion assay, HT1080; assay type: cell-based, human; settings: 24 h of treatment; for inhibition at 10 µM: concentration tested 10 µM
Method: as §3

[7] = target: human GS3 heparanase (Homo sapiens, UniProt Q9Y251); experiment: fondaparinux assay of heparanase enzymatic activity (WST-1 colorimetric); assay type: biochemical; settings: fondaparinux assay on human GS3 heparanase; mean of triplicates; read-out: IC50 (µM) ± SD, heparanase inhibitory activity
Chain of human GS3 heparanase (Q9Y251 other isoform, or with tags, fused parts or gaps): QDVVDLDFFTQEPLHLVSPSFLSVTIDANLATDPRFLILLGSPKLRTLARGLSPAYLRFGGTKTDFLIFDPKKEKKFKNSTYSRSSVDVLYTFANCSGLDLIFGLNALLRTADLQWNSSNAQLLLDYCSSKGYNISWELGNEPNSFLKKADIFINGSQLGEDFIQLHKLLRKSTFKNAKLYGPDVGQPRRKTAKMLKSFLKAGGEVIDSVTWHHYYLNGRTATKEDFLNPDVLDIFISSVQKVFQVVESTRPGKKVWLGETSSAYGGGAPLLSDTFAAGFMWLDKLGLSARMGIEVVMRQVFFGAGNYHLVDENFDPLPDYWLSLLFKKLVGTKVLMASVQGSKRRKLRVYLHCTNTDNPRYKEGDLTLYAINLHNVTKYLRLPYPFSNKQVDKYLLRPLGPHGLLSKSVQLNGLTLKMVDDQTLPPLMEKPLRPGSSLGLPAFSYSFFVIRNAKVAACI
Description: To determine the activity of the heparanase inhibitors, a homogeneous assay based on the cleavage of the synthetic heparin oligosaccharide fondaparinux (Arixtra; Aspen) was used. The assay measures colorimetrically the appearance of the disaccharide product of heparanase-catalysed fondaparinux cleavage using the tetrazolium salt WST-1. The assay was essentially performed as described[39] with minor modifications. Briefly, Nunc 96-well (Thermo Fisher Scientific) plates were pre-treated with a solution of 4% BSA (bovine serum albumin, Sigma-Aldrich) in phosphate-buffered saline containing 0.05% Tween 20 (PBST), for 2 h at 37 °C, and then washed three times with PBST. […] The IC50 value for each compound was calculated by GraphPad software. Finally, the measurements were corrected by subtracting both the reagent background and the inner absorbance value of test compound.
Supporting Table S1 reports the structures of the fifty-five compounds purchased and tested, with information, for each compound, on the database from which it was retrieved, the reference inhibitor used to retrieve it and the similarity value with the reference inhibitor.

[8] = test system: FGF-1, FGF-2, VEGF, MMP-9 and heparanase mRNA in HT1080 cells; experiment: real-time qPCR of angiogenesis-related genes and heparanase in HT1080 cells; assay type: cell-based, human; settings: 1 µM, 24 h, q-PCR
Method: Total RNA was extracted from HT1080 cells, upon 24 h of treatment with test compounds (1 µM) and then retrotranscribed using the iScript Advanced cDNA Synthesis Kit for RT-qPCR (Bio-Rad Laboratories Inc., Hercules, CA) according to the manufacturer’s instructions. Real time quantitative PCR analysis was performed using SsoAdvanced Universal SYBR Green Supermix (Bio- Rad Laboratories Inc., Hercules, CA) and the following PrimePCR SYBR Green Assays: qHsaCID0015228 (heparanase), qHsaCED0002206 (FGF-1), qHsaCID0015510 (FGF-2), qHsaCID0011597 (MMP-9), and qHsaCED0043454 (VEGF-A) (Bio-Rad Laboratories Inc., Hercules, CA). The 7900HT Sequence Detection System instrument and software (Applied Biosystems) were used to quantify the relative expression of the target genes. Tests were performed in triplicate.

[9] = target: heparanase; settings: literature value of reference inhibitor 6; read-out: reported IC50; cited from earlier work

In the case of `Cc1ccc(C(=O)Nc2ccc(S(=O)(=O)O)c3cc(S(=O)(=O)O)cc(S(=O)(=O)O)c23)cc1NC(=O)c1cccc(NC(=O)Nc2cccc(C(=O)Nc3cc(C(=O)Nc4ccc(S(=O)(=O)O)c5cc(S(=O)(=O)O)cc(S(=O)(=O)O)c45)ccc3C)c2)c1` [suramin, reference compound], the IC50 ([1]; Homo sapiens) is reported as over 10 µM, the IC50 ([2]; Homo sapiens, U-87 MG) is reported as over 10 µM and the inhibition at 10 µM ([3]; Homo sapiens, U-87 MG) is reported as under 0%. For the same compound, the inhibition at 10 µM ([4]; Homo sapiens, U2OS) was under 0%, the IC50 ([5]; Homo sapiens, HT-1080) was over 10 µM and the inhibition at 10 µM ([6]; Homo sapiens, HT-1080) was 22 ± 5%.

With `COc1cc(/N=N/c2cc(S(=O)(=O)O)cc3cc(S(=O)(=O)O)cc(O)c23)c(C)cc1NC(=O)Nc1cc(C)c(/N=N/c2cc(S(=O)(=O)O)cc3cc(S(=O)(=O)O)cc(O)c23)cc1OC` [Compound 16] the IC50 ([1]; Homo sapiens) was over 10 µM, the IC50 ([2]; Homo sapiens, U-87 MG) was over 10 µM and the inhibition at 10 µM ([3]; Homo sapiens, U-87 MG) was 10 ± 4%. For the same compound, the inhibition at 10 µM ([4]; Homo sapiens, U2OS) was under 0%, the IC50 [7] was < 0.5 µM and 0.37 µM and the IC50 ([5]; Homo sapiens, HT-1080) was over 10 µM. The inhibition at 10 µM ([6]; Homo sapiens, HT-1080) was 93 ± 1%.

For `O=C(Nc1ccc(-c2nc3ccccc3[nH]2)cc1)c1ccc(C(=O)Nc2ccc(-c3nc4ccccc4[nH]3)cc2)cc1` [Compound 61], the IC50 [1] was over 10 µM, the IC50 [2] was over 10 µM and the “Invasion assay inhibition (%) U87MG” value ([3]; concentration tested 2.5 µM) was 43 ± 5%. For the same compound, the “Invasion assay inhibition (%) U2OS” value ([4]; concentration tested 2.5 µM) was 80 ± 2%, the IC50 [5] was over 10 µM and the “Invasion assay inhibition (%) HT1080” value ([6]; concentration tested 2.5 µM) was 41 ± 3%. The “effect on transcription of heparanase” value [8] was “not or very weakly affected” and the “effect on transcription of proangiogenic genes (FGF-1, FGF-2, VEGF, MMP-9)” value [8] was “significant inhibitory effect”.

For `O=C(O)c1ccc2c(c1)C(=O)N(c1ccc(NC(=O)c3cccc(C(=O)Nc4ccc(N5C(=O)c6ccc(C(=O)O)cc6C5=O)cc4Cl)c3)c(Cl)c1)C2=O` [Compound 63], the IC50 [1] was over 10 µM, the IC50 [2] was over 10 µM and the “Invasion assay inhibition (%) U87MG” value ([3]; concentration tested 2.5 µM) was 45 ± 4%. For the same compound, the “Invasion assay inhibition (%) U2OS” value ([4]; concentration tested 2.5 µM) was 75 ± 3%, the IC50 [5] was over 10 µM and the “Invasion assay inhibition (%) HT1080” value ([6]; concentration tested 2.5 µM) was 39 ± 6%. The “effect on transcription of heparanase” value [8] was “not or very weakly affected” and the “effect on transcription of proangiogenic genes (FGF-1, FGF-2, VEGF, MMP-9)” value [8] was “significant inhibitory effect”.

In the case of `O=C(O)Cc1ccc2oc(-c3ccc(NC(=O)Nc4ccc(-c5nc6cc(CC(=O)O)ccc6o5)cc4F)c(F)c3)nc2c1` [Compound 6], the IC50 [9] is listed as 0.18 µM.

In the case of `O=C(Nc1cccc(-c2nc3ccccc3[nH]2)c1)c1ccc(Oc2ccc(C(=O)Nc3cccc(-c4nc5ccccc5[nH]4)c3)cc2)cc1` [Compound 29], the IC50 ([1]; Homo sapiens) is reported as over 10 µM, the IC50 ([2]; Homo sapiens, U-87 MG) is reported as over 10 µM and the inhibition at 2.5 µM ([3]; Homo sapiens, U-87 MG, concentration tested 2.5 µM) is reported as 15 ± 3%. The inhibition at 2.5 µM ([4]; Homo sapiens, U2OS, concentration tested 2.5 µM) was 18 ± 3%, the IC50 [7] was < 0.5 µM and 0.38 µM and the IC50 ([5]; Homo sapiens, HT-1080) was over 10 µM. The inhibition at 2.5 µM ([6]; Homo sapiens, HT-1080, concentration tested 2.5 µM) was 29 ± 4%.

Compound `COc1ccc(C(=O)Nc2ccc(CNc3ccc(-c4nc5ccccc5[nH]4)cc3)cc2)cc1Br` [Compound 7, reference compound] has an inhibition at 1 µM ([3]; Homo sapiens, U-87 MG, concentration tested 1.0 µM) of 78 ± 3%, an inhibition at 1 µM ([4]; Homo sapiens, U2OS, concentration tested 1.0 µM) of 82 ± 2% and an inhibition at 1 µM ([6]; Homo sapiens, HT-1080, concentration tested 1.0 µM) of 88 ± 2%.
